Nine compounds from patent US20220324835A1 (Nurix Therapeutics, Inc., priority 2018, published 2022) can be followed below.

Experiment [1] has as its system T-cell. The experiment can be described thus: IL-2 secretion from T-cells stimulated with anti-CD3 antibody alone (Biological Example 2). Particulars: T-cell; for fold induction at 8 µM: 8 μM Cbl-b inhibitor. It counts as cell-based, human.
In experiment [2] the test system is T-cell. The experiment can be described thus: CD25 cell surface staining on T-cells stimulated with anti-CD3 antibody alone (Biological Example 2). Format: cell-based, human. Particulars: T-cell; for fold induction at 8 µM: 8 μM Cbl-b inhibitor.
The target of experiment [3] is T1, Cbl-b (Homo sapiens, UniProt Q13191). The experiment can be described thus: Cbl-b activity assay (Cbl-b inhibition assay), TR-FRET of Cbl-b interaction with UbcH5B-Ub. It counts as biochemical. Particulars: assay buffer with 100 mM NaCl, 60 nM Src kinase; read-out: Cbl-b activity IC50. The procedure, abridged: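 UbcH5B (C85K) conjugated to N-terminally Bodipy-Fluorescein-labeled ubiquitin served as the fluorescent partner. After compound preincubation, Src kinase (60 nM) with 1 mM ATP and 5 mM MgCl2 (final) was added for 1.5 h, followed by a further 1 h incubation. Some values were obtained with 50 mM NaCl and 30 nM Src.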
On the technique in general: TR-FRET usually uses a lanthanide donor and a delayed reading to cut background.

Experiment [4] relates to T-cell. The experiment can be described thus: IL-2 secretion from T-cells co-stimulated with anti-CD3 and anti-CD28 antibody (Biological Example 2). Format: cell-based, human. To be noted: Homo sapiens, T-cell; for fold induction at 4 µM: 4 μM Cbl-b inhibitor. The procedure, abridged:
(§1)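 T-cells were stimulated with anti-CD3 antibody alone or with anti-CD28 antibody, in the presence or absence of Cbl-b inhibitor. IL-2 secretion or CD25 surface staining was measured, and values expressed as fold over the uninhibited baseline […].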

In experiment [5] the test system is T-cell. The experiment can be described thus: CD25 cell surface staining on T-cells co-stimulated with anti-CD3 and anti-CD28 antibody (Biological Example 2). Format: cell-based, human. Particulars: Homo sapiens, T-cell; for fold induction at 4 µM: 4 μM Cbl-b inhibitor. The method in brief: as §1
The target of experiment [6] is T1, Cbl-b. The experiment can be described thus: Cbl-b inhibition assay (Cbl-b activity assay, FRET, Biological Example 1; 100 mM NaCl, 60 nM Src kinase). It counts as biochemical. To be noted: upper bound stated in text lists; read-out: IC50 values in the Cbl-b inhibition assay of Biological Example 1. The method in brief: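 Binding-based Cbl-b activity assay. Src-phosphorylated, N-terminally biotin-Avi-tagged Cbl-b recruits labelled UbcH5B-Ub, and proximity to streptavidin-terbium yields FRET.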

Setting [7] is: fold change over baseline, 1 μM Cbl-b inhibitor, primary human total T-cells, read-out: IL-2 secretion Anti-CD3 stimulation.
The mark [8] stands for this setting: fold change over baseline, 1 μM Cbl-b inhibitor, primary human total T-cells, read-out: CD25 staining Anti-CD3 stimulation.
Setting [9] is: fold change over baseline, 0.3 μM Cbl-b inhibitor, primary human total T-cells, read-out: IL-2 secretion Anti-CD3/Anti-CD28 stimulation.
The mark [10] stands for this setting: fold change over baseline, 1 μM Cbl-b inhibitor, primary human total T-cells, read-out: IL-2 secretion Anti-CD3/Anti-CD28 stimulation.
Setting [11] is: fold change over baseline, 0.3 μM Cbl-b inhibitor, primary human total T-cells, read-out: CD25 staining Anti-CD3/Anti-CD28 stimulation.
[12] abbreviates: fold change over baseline, 1 μM Cbl-b inhibitor, primary human total T-cells, read-out: CD25 staining Anti-CD3/Anti-CD28 stimulation.
Setting [13] is: fold change over baseline, primary human total T-cells, read-out: IL-2 secretion Anti-CD3 stimulation.
Where [14] appears, read: fold change over baseline, primary human total T-cells, read-out: CD25 staining Anti-CD3 stimulation.
Setting [15] is: fold change over baseline, primary human total T-cells, read-out: IL-2 secretion Anti-CD3/Anti-CD28 stimulation.
[16] abbreviates: fold change over baseline, primary human total T-cells, read-out: CD25 staining Anti-CD3/Anti-CD28 stimulation.
The mark [17] stands for this setting: read-out: IL-2 secretion, Anti-CD3/Anti-CD28 stimulation, fold change over baseline.
Setting [18] is: read-out: CD25 staining, Anti-CD3/Anti-CD28 stimulation, fold change over baseline.

Structures are written as SMILES.

T1 sequence (Q13191 36-427): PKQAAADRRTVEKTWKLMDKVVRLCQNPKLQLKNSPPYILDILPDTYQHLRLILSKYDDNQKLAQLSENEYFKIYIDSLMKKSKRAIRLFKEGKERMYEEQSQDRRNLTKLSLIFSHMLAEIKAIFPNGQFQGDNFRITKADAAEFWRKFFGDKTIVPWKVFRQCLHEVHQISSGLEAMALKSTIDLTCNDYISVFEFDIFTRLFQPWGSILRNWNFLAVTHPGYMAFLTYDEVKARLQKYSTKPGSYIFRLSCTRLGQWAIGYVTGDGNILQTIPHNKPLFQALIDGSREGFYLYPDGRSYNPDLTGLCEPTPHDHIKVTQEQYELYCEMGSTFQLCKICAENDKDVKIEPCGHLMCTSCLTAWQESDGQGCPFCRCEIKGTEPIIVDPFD

As usually defined, the IC50 is the midpoint of a concentration-inhibition curve. Take `Cn1cnnc1CC1(c2cccc(NC(=O)c3[nH]nc4c3OCCC4)c2)COC1` [Compound 343, N-(3-(3-((4-Methyl-4H-1,2,4-triazol-3-yl)methyl)oxetan-3-yl)phenyl)-2,5,6,7-tetrahydropyrano[3,2-c]pyrazole-3-carboxamide]: the fold induction at 1 µM fell in the range of 0.051 to 0.1 in experiment [1] (setting [7]), 0.601 to 0.8 in experiment [2] (setting [8]), 1.01 to 2.5 in experiment [4] (setting [10]) and 1.01 to 1.3 in experiment [5] (setting [12]). The IC50 in experiment [3] is under 0.1 µM; in experiment [6] it was at most 0.1 µM. Also, the fold induction at 0.3 µM in experiment [4] (setting [9]) lay in the range of 1.01 to 2.5; in experiment [5] (setting [11]) it was 1.01 to 1.3.
For `Cn1cnnc1C(F)(F)[C@](C)(F)c1cccc(NC(=O)c2nc3c(C(F)(F)F)cccc3[nH]2)c1` [Compound 345, (R)-N-(3-(1,1,2-trifluoro-1-(4-methyl-4H-1,2,4-triazol-3-yl)propan-2-yl)phenyl)-4-(trifluoromethyl)-1H-benzo[d]imidazole-2-carboxamide], the fold induction at 1 µM in experiment [1] (setting [7]) is 0.051 to 0.1; in experiment [2] (setting [8]), 0.601 to 0.8; in experiment [4] (setting [10]), 1.01 to 2.5; in experiment [5] (setting [12]) it was 1.01 to 1.3. Besides, the fold induction at 8 µM was 0.151 to 0.2 in experiment [1] (setting [13]) and 0.601 to 0.8 in experiment [2] (setting [14]). Also, the IC50 in experiment [3] is 0.1 to 0.3 µM; in experiment [6], at most 0.3 µM. Also, the fold induction at 0.3 µM lay in the range of 1.01 to 2.5 in experiment [4] (setting [9]) and 1.01 to 1.3 in experiment [5] (setting [11]). Further, the fold induction at 4 µM in experiment [4] (setting [15]) lay in the range of 2.51 to 5; in experiment [5] (setting [16]), 1.01 to 1.3.
Consider `Cc1cc(C(=O)Nc2cccc(C3(C(F)(F)c4nncn4C)CC3)c2)nc(C2CC2)n1` [Compound 346, 2-cyclopropyl-N-(3-{1-[difluoro(4-methyl-4H-1,2,4-triazol-3-yl)methyl]cyclopropyl}phenyl)-6-methylpyrimidine-4-carboxamide], for which the fold induction at 1 µM in experiment [1] (setting [7]) is 0.101 to 0.15; in experiment [2] (setting [8]) it was 0.601 to 0.8; in experiment [4] (setting [10]) it was 2.51 to 5; in experiment [5] (setting [12]) it was 1.01 to 1.3. In addition, the IC50 in experiment [3] is under 0.1 µM; in experiment [6], at most 0.1 µM. Also, the fold induction at 0.3 µM in experiment [4] (setting [9]) is 1.01 to 2.5; in experiment [5] (setting [11]) it was 1.01 to 1.3.
For the compound `Cn1cnnc1CC1(c2cccc(NC(=O)c3cc(C4CC4)nc(C4CC4)n3)c2)COC1` [Compound 347, 2,6-dicyclopropyl-N-(3-(3-((4-methyl-4H-1,2,4-triazol-3-yl)methyl)oxetan-3-yl)phenyl)pyrimidine-4-carboxamide], the fold induction at 1 µM in experiment [1] (setting [7]) was 0.151 to 0.2; in experiment [2] (setting [8]), over 1; in experiment [4] (setting [10]), over 7.5; in experiment [5] (setting [12]), 1.01 to 1.3. The figures for the fold induction at 8 µM in experiment [1] (setting [13]) and in experiment [2] (setting [14]) were over 0.201 and over 1, respectively. Further, the IC50 in experiment [3] was under 0.1 µM; in experiment [6], at most 0.1 µM. Further, the fold induction at 0.3 µM in experiment [4] (setting [9]) fell in the range of 2.51 to 5; in experiment [5] (setting [11]) it was 1.01 to 1.3. For the same compound, the fold induction at 4 µM in experiment [4] (setting [15]) is over 7.5; in experiment [5] (setting [16]), 1.31 to 1.5.
Turning to `CN1CCN(c2cc(C(=O)Nc3cccc(C4(Cc5nncn5C)COC4)c3)nc(C3CC3)n2)CC1` [Compound 348, 2-Cyclopropyl-N-(3-(3-((4-methyl-4H-1,2,4-triazol-3-yl)methyl)oxetan-3-yl)phenyl)-6-(4-methylpiperazin-1-yl)pyrimidine-4-carboxamide], the fold induction at 1 µM was over 0.201 in experiment [1] (setting [7]), 0.801 to 1 in experiment [2] (setting [8]), over 7.5 in experiment [4] (setting [10]) and 1.31 to 1.5 in experiment [5] (setting [12]). The IC50 in experiment [3] is under 0.1 µM; in experiment [6], at most 0.1 µM. For the same compound, the fold induction at 0.3 µM fell in the range of 2.51 to 5 in experiment [4] (setting [9]) and 1.31 to 1.5 in experiment [5] (setting [11]).
Consider `C[C@H](Cc1nncn1C)c1cc(NC2CCC2)nc(N2Cc3c(cccc3C(F)(F)F)C2=O)c1` [Compound 351, 2-[6-(cyclobutylamino)-4-[(2R)-1-(4-methyl-4H-1,2,4-triazol-3-yl)propan-2-yl]pyridin-2-yl]-4-(trifluoromethyl)-2,3-dihydro-1H-isoindol-1-one], for which the fold induction at 1 µM in experiment [1] (setting [7]) is under 0.05; in experiment [2] (setting [8]) it was 0.601 to 0.8; in experiment [4] (setting [10]), 1.01 to 2.5; in experiment [5] (setting [12]), 1.01 to 1.3. The fold induction at 8 µM in experiment [1] (setting [13]) is 0.151 to 0.2; in experiment [2] (setting [14]), over 1. Also, the figures for the IC50 in experiment [3] and in experiment [6] were 0.1 to 0.3 µM and at most 0.3 µM, respectively. The fold induction at 0.3 µM in experiment [4] (setting [9]) lay within 1.01 to 2.5; in experiment [5] (setting [11]), 1.01 to 1.3. Besides, the fold induction at 4 µM was in the range of 1.01 to 2.5 in experiment [4] (setting [15]) and 1.01 to 1.3 in experiment [5] (setting [16]).
For the compound `C[C@H](Cc1nncn1C)c1cc(OC2COC2)nc(N2Cc3c(cccc3C(F)(F)F)C2=O)c1` [Compound 354, 2-{4-[(2R)-1-(4-methyl-4H-1,2,4-triazol-3-yl)propan-2-yl]-6-(oxetan-3-yloxy)pyridin-2-yl}-4-(trifluoromethyl)-2,3-dihydro-1H-isoindol-1-one], the fold induction at 1 µM was in the range of 0.101 to 0.15 in experiment [1] (setting [7]), 0.601 to 0.8 in experiment [2] (setting [8]), 1.01 to 2.5 in experiment [4] (setting [10]) and 1.01 to 1.3 in experiment [5] (setting [12]). Moreover, the values for the fold induction at 8 µM in experiment [1] (setting [13]) and in experiment [2] (setting [14]) were over 0.201 and over 1, respectively. The IC50 is 0.1 to 0.3 µM in experiment [3] and at most 0.3 µM in experiment [6]. For the same compound, the figures for the fold induction at 0.3 µM in experiment [4] (setting [9]) and in experiment [5] (setting [11]) were 1.01 to 2.5 and 1.01 to 1.3, respectively. Also, the fold induction at 4 µM in experiment [4] (setting [15]) was in the range of 5 to 7.5; in experiment [5] (setting [16]) it was 1.31 to 1.5.
Consider `C[C@H](Cc1nncn1C)c1cc(OCC(F)F)nc(N2Cc3c(cccc3C(F)(F)F)C2=O)c1` [Compound 356, (R)-2-(6-(2,2-difluoroethoxy)-4-(1-(4-methyl-4H-1,2,4-triazol-3-yl)propan-2-yl)pyridin-2-yl)-4-(trifluoromethyl)isoindolin-1-one], for which the fold induction at 1 µM in experiment [1] (setting [7]) lay within 0.151 to 0.2; in experiment [2] (setting [8]), 0.801 to 1; in experiment [4] (setting [10]) it was 2.51 to 5; in experiment [5] (setting [12]) it was 1.01 to 1.3. The fold induction at 8 µM in experiment [1] (setting [13]) was over 0.201; in experiment [2] (setting [14]) it was over 1. The IC50 in experiment [3] is under 0.1 µM; in experiment [6] it was at most 0.1 µM. Moreover, the fold induction at 0.3 µM fell in the range of 2.51 to 5 in experiment [4] (setting [9]) and 1.01 to 1.3 in experiment [5] (setting [11]). The fold induction at 4 µM in experiment [4] (setting [15]) was over 7.5; in experiment [5] (setting [16]), 1.31 to 1.5.
In the case of `CN1C2CCC1CN(c1cc3c(c(C(F)(F)F)c1)CN(c1cccc(C4(Cc5nncn5C)COC4)c1)C3=O)C2` [Compound 388, 2-(3-(3-((4-Methyl-4H-1,2,4-triazol-3-yl)methyl)oxetan-3-yl)phenyl)-6-(8-methyl-3,8-diazabicyclo[3.2.1]octan-3-yl)-4-(trifluoromethyl)isoindolin-1-one], the fold induction at 1 µM was 0.151 to 0.2 in experiment [1] (Homo sapiens, read-out: IL-2 secretion, Anti-CD3 stimulation, fold change over baseline); over 1 in experiment [2] (Homo sapiens, read-out: CD25 staining, Anti-CD3 stimulation, fold change over baseline); 5 to 7.5 in experiment [4] (setting [17]); 1.01 to 1.3 in experiment [5] (setting [18]). For the same compound, the IC50 in experiment [3] is under 0.1 µM; in experiment [6], at most 0.1 µM. Besides, the fold induction at 0.3 µM fell in the range of 2.51 to 5 in experiment [4] (setting [17]) and 1.01 to 1.3 in experiment [5] (setting [18]).
